Patent US9681664B2, “Macrocyclic picolinamides as fungicides” (Dow Agrosciences LLC, priority 2012, dated 2017)
Like-named read-outs stand apart in the source and are kept apart here.

How the values were obtained:
[1] = tested on: Puccinia triticina; Synonym: Puccinia recondite f. sp. tritici; assay: Wheat brown rust (PUCCRT) disease control on wheat seedlings; format: in vivo; settings: Puccinia triticina, Wheat Brown Rust; for pest or weed control at 121.5 g/ha: low volume application, 121.5 g/H; for pest or weed control at 100 ppm: high volume application
How it was run: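 Acetone solutions diluted in nine volumes of water with 110 ppm Triton X-100 sprayed to run-off on first-leaf Yuma wheat seedlings (track spray: EC with 0.1% Trycol 5941). Puccinia triticina spores inoculated before or after treatment; overnight dark dew at 22° C., 100% RH, then greenhouse at 24° C. for disease development.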

[2] = tested on: Mycosphaerella graminicola; Anamorph: Septoria tritici; assay: Leaf blotch of wheat (SEPTTR) disease control on wheat seedlings; format: in vivo; settings: Zymoseptoria tritici, Wheat Leaf Blotch; for pest or weed control at 121.5 g/ha: low volume application, 121.5 g/H; for pest or weed control at 100 ppm: high volume application
How it was run: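 Wheat seedlings (Yuma, first leaf emerged) sprayed to run-off with compound in acetone/water with 110 ppm Triton X-100, or track-sprayed as EC with 0.1% Trycol 5941. Septoria tritici spores inoculated before or after treatment. Dew chambers, then 20 °C greenhouse. Percent disease control derived from severity (0–100%) relative to untreated plants.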

[3] = 24 h, 1 Day Protectant, read-out: Disease Control PUCCRT 1 DP 121.5 g/H
[4] = 72 h, 3 Day Curative, read-out: Disease Control PUCCRT 3 DC 121.5 g/H
[5] = 24 h, 1 Day Protectant, read-out: Disease Control SEPTTR 1 DP 121.5 g/H
[6] = 72 h, 3 Day Curative, read-out: Disease Control SEPTTR 3 DC 121.5 g/H
[7] = 24 h, 1 Day Protectant, read-out: Disease Control PUCCRT 1 DP 100 ppm
[8] = 72 h, 3 Day Curative, read-out: Disease Control PUCCRT 3 DC 100 ppm
[9] = 24 h, 1 Day Protectant, read-out: Disease Control SEPTTR 1 DP 100 ppm
[10] = 72 h, 3 Day Curative, read-out: Disease Control SEPTTR 3 DC 100 ppm

Row | SMILES | pest or weed control at 121.5 g/ha [1, 3] | pest or weed control at 121.5 g/ha [1, 4] | pest or weed control at 121.5 g/ha [2, 5] | pest or weed control at 121.5 g/ha [2, 6] | pest or weed control at 100 ppm [1, 7] | pest or weed control at 100 ppm [1, 8] | pest or weed control at 100 ppm [2, 9] | pest or weed control at 100 ppm [2, 10]
1 | COCCC(=O)Oc1c(OC)ccnc1C(=O)N[C@H]1CCC[C@H](Oc2ccccc2)[C@@H](OC)[C@H](C)OC1=O [F260] | 80 to 100% | 80 to 100% | 0 to 80% | 80 to 100% | – | – | – | –
2 | CCCO[C@H]1CCC[C@H](NC(=O)c2nccc(OC)c2O)C(=O)O[C@@H](C)[C@@H]1Oc1ccc(F)cc1 [F262] | – | – | – | – | 0 to 80% | 80 to 100% | 80 to 100% | 80 to 100%
3 | CCCO[C@H]1[C@H](C)OC(=O)[C@@H](NC(=O)c2nccc(OC)c2O)CCC[C@@H]1Oc1ccc(F)cc1 [F264] | – | – | – | – | 0 to 80% | 80 to 100% | 80 to 100% | 0 to 80%
4 | CCCO[C@H]1CCC[C@H](NC(=O)c2nccc(OC)c2OCOC(C)=O)C(=O)O[C@@H](C)[C@@H]1Oc1ccc(F)cc1 [F265] | 80 to 100% | 0 to 80% | 80 to 100% | – | 80 to 100% | 80 to 100% | 80 to 100% | 80 to 100%
5 | CCCO[C@H]1CCC[C@H](NC(=O)c2nccc(OC)c2OC(C)=O)C(=O)O[C@@H](C)[C@@H]1Oc1ccc(F)cc1 [F266] | 80 to 100% | 80 to 100% | 80 to 100% | – | – | – | – | –
6 | CCCO[C@H]1[C@H](C)OC(=O)[C@@H](NC(=O)c2nccc(OC)c2OCOC(C)=O)CCC[C@@H]1Oc1ccc(F)cc1 [F267] | – | – | – | – | 80 to 100% | 80 to 100% | 80 to 100% | 80 to 100%
7 | CCCO[C@H]1CCC[C@H](NC(=O)c2nccc(OC)c2O)C(=O)O[C@@H](C)[C@@H]1Oc1ccc(OC)cc1 [F270] | – | – | – | – | 80 to 100% | 80 to 100% | 80 to 100% | 0 to 80%
8 | CCCO[C@H]1CCC[C@H](NC(=O)c2nccc(OC)c2O)C(=O)O[C@@H](C)[C@@H]1Oc1cccc(F)c1 [F271] | – | – | – | – | 80 to 100% | 80 to 100% | 80 to 100% | 80 to 100%
9 | CCCO[C@H]1CCC[C@H](NC(=O)c2nccc(OC)c2O)C(=O)O[C@@H](C)[C@@H]1Oc1cccc(Cl)c1 [F272] | – | – | – | – | 80 to 100% | 80 to 100% | 80 to 100% | 80 to 100%
10 | CCCO[C@H]1CCC[C@H](NC(=O)c2nccc(OC)c2O)C(=O)O[C@@H](C)[C@@H]1Oc1ccc(Br)cc1 [F273] | – | – | – | – | 80 to 100% | 80 to 100% | 80 to 100% | 0 to 80%
11 | CCCO[C@H]1CCC[C@H](NC(=O)c2nccc(OC)c2OC(C)=O)C(=O)O[C@@H](C)[C@@H]1Oc1ccc(OC)cc1 [F274] | 80 to 100% | 0 to 80% | 80 to 100% | 80 to 100% | 80 to 100% | 80 to 100% | 80 to 100% | 80 to 100%
12 | CCCO[C@H]1CCC[C@H](NC(=O)c2nccc(OC)c2OC(C)=O)C(=O)O[C@@H](C)[C@@H]1Oc1cccc(F)c1 [F275] | 80 to 100% | 80 to 100% | 80 to 100% | 80 to 100% | 80 to 100% | 80 to 100% | 80 to 100% | 80 to 100%
13 | CCCO[C@H]1[C@H](C)OC(=O)[C@@H](NC(=O)c2nccc(OC)c2O)CCC[C@@H]1Oc1cccc(F)c1 [F280] | – | – | – | – | 80 to 100% | 0 to 80% | 80 to 100% | 80 to 100%
14 | CCCO[C@H]1[C@H](C)OC(=O)[C@@H](NC(=O)c2nccc(OC)c2O)CCC[C@@H]1Oc1cc(C)cc(C)c1 [F281] | – | – | – | – | 80 to 100% | 0 to 80% | 0 to 80% | 0 to 80%
15 | CCCO[C@H]1[C@H](C)OC(=O)[C@@H](NC(=O)c2nccc(OC)c2OC(C)=O)CCC[C@@H]1Oc1cc(C)cc(C)c1 [F282] | 80 to 100% | 80 to 100% | 80 to 100% | 80 to 100% | 80 to 100% | 80 to 100% | 80 to 100% | 80 to 100%
16 | CCCO[C@H]1CCC[C@H](NC(=O)c2nccc(OC)c2O)C(=O)O[C@@H](C)[C@@H]1Oc1ccc(-c2ccccc2)cc1 [F283] | – | – | – | – | 80 to 100% | 0 to 80% | 80 to 100% | 0 to 80%
17 | CCCO[C@H]1[C@H](C)OC(=O)[C@@H](NC(=O)c2nccc(OC)c2OC(C)=O)CCC[C@@H]1Oc1cccc(F)c1 [F284] | 80 to 100% | 80 to 100% | 80 to 100% | 80 to 100% | 80 to 100% | 80 to 100% | 80 to 100% | 80 to 100%
18 | CCCO[C@H]1CCC[C@H](NC(=O)c2nccc(OC)c2OC(C)=O)C(=O)O[C@@H](C)[C@@H]1Oc1ccc(Br)cc1 [F285] | 80 to 100% | 80 to 100% | 80 to 100% | 80 to 100% | 80 to 100% | 0 to 80% | 80 to 100% | 80 to 100%
19 | CCCO[C@H]1CCC[C@H](NC(=O)c2nccc(OC)c2OC(C)=O)C(=O)O[C@@H](C)[C@@H]1Oc1cccc(Cl)c1 [F286] | 80 to 100% | 0 to 80% | 80 to 100% | 80 to 100% | 80 to 100% | 80 to 100% | 80 to 100% | 80 to 100%
20 | CCCO[C@H]1CCC[C@H](NC(=O)c2nccc(OC)c2OC(C)=O)C(=O)O[C@@H](C)[C@@H]1Oc1ccc(-c2ccccc2)cc1 [F287] | 80 to 100% | 80 to 100% | 80 to 100% | 80 to 100% | 80 to 100% | 80 to 100% | 80 to 100% | 80 to 100%
21 | C=C(C)c1ccc(O[C@H]2[C@H](C)OC(=O)[C@@H](NC(=O)c3nccc(OC)c3O)CCC[C@@H]2OCCC)cc1 [F288] | – | – | – | – | 80 to 100% | 80 to 100% | 80 to 100% | 80 to 100%
22 | C=C(C)c1ccc(O[C@H]2[C@H](C)OC(=O)[C@@H](NC(=O)c3nccc(OC)c3OC(C)=O)CCC[C@@H]2OCCC)cc1 [F289] | 80 to 100% | 80 to 100% | 80 to 100% | 80 to 100% | 80 to 100% | 80 to 100% | 80 to 100% | 80 to 100%
